Assay results taken from patent US11254663B2 (BRISTOL-MYERS SQUIBB COMPANY, priority 2019, dated 2022).

target: FXR (Homo sapiens (Human), UniProt Q96RI1); assay: transient human FXR/Gal4-luciferase reporter assay; format: cell-based; conditions: not given
Outline: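 Compound exposure ran overnight at 37 °C and activity was measured as luminescence with Steady-Glo reagent. The cells were a HEK293 line stably expressing firefly luciferase under five Gal4 response elements. They were transiently transfected, one night beforehand, with a plasmid encoding Gal4 DNA-binding domain fused to the human FXR ligand-binding domain.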

FXR, sequence (Q96RI1 262-486): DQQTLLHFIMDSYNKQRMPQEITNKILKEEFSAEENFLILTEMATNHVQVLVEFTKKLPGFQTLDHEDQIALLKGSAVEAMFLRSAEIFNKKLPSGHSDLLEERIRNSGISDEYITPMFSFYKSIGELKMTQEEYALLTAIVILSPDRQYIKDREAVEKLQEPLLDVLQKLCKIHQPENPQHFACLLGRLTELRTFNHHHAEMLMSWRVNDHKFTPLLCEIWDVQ

SMILES | EC50
CS(=O)(=O)Nc1ccc(-c2cccc(N(CC34CCC(c5noc(C(F)F)n5)(CC3)CC4)C(=O)C34CC(F)(C3)C4)c2)cc1 [Example 460, N-((4-(5-(difluoromethyl)-1,2,4-oxadiazol-3-yl)bicyclo[2.2.2]octan-1-yl)methyl)-3-fluoro-N-(4′-(methylsulfonamido)-[1,1′-biphenyl]-3-yl)bicyclo[1.1.1]pentane-1-carboxamide] | 338 nM
CC(C)(C)c1nc(C23CCC(CN(C(=O)C45CC(F)(C4)C5)c4cc(-c5ccc(OC(F)F)cn5)ccn4)(CC2)CC3)no1 [Example 544, N-((4-(5-(tert-butyl)-1,2,4-oxadiazol-3-yl)bicyclo[2.2.2]octan-1-yl)methyl)-N-(5-(difluoromethoxy)-[2,4′-bipyridin]-2′-yl)-3-fluorobicyclo[1.1.1]pentane-1-carboxamide] | 20 nM
CC(C)(C)c1noc(C23CCC(CN(C(=O)C45CC(F)(C4)C5)c4cncc(-c5ccc(NS(C)(=O)=O)cc5)c4)(CC2)CC3)n1 [Example 475, N-((4-(3-(tert-butyl)-1,2,4-oxadiazol-5-yl)bicyclo[2.2.2]octan-1-yl)methyl)-3-fluoro-N-(5-(4-(methylsulfonamido)phenyl)pyridin-3-yl)bicyclo[1.1.1]pentane-1-carboxamide] | 1600 nM
CS(=O)(=O)Nc1ccc(-c2cccc(N(CC34CCC(c5ccc(C(F)(F)F)cn5)(CC3)CC4)C(=O)C34CC(F)(C3)C4)c2)cc1 [Example 488, 3-fluoro-N-(4′-(methylsulfonamido)-[1,1′-biphenyl]-3-yl)-N-((4-(5-(trifluoromethyl)pyridin-2-yl)bicyclo[2.2.2]octan-1-yl)methyl)bicyclo[1.1.1]pentane-1-carboxamide] | 876 nM
O=C(N(CC12CCC(c3ccc(C(F)(F)F)cn3)(CC1)CC2)c1cccc(-c2ncc(OC(F)F)cn2)c1)C12CC(F)(C1)C2 [Example 499, N-(3-(5-(difluoromethoxy)pyrimidin-2-yl)phenyl)-3-fluoro-N-((4-(5-(trifluoromethyl)pyridin-2-yl)bicyclo[2.2.2]octan-1-yl)methyl)bicyclo[1.1.1]pentane-1-carboxamide] | 135 nM
CCOc1cnc(-c2ccnc(N(CC34CCC(c5noc(C(C)(C)C)n5)(CC3)CC4)C(=O)C34CC(F)(C3)C4)c2)nc1 [Example 542, N-((4-(5-(tert-butyl)-1,2,4-oxadiazol-3-yl)bicyclo[2.2.2]octan-1-yl)methyl)-N-(4-(5-ethoxypyrimidin-2-yl)pyridin-2-yl)-3-fluorobicyclo[1.1.1]pentane-1-carboxamide] | 22 nM

same assay, conditions: Gal4-hFXR fusion construct, HEK293 reporter cells; response relative to 8 μM GW-4064

SMILES | EC50
COc1cc(-c2cccc(N(CC34CCC(c5nnc(C)s5)(CC3)CC4)C(=O)C3CC(F)(F)C3)c2)ccn1 [Example 234, 3,3-difluoro-N-(3-(2-methoxypyridin-4-yl)phenyl)-N-((4-(5-methyl-1,3,4-thiadiazol-2-yl)bicyclo[2.2.2]octan-1-yl)methyl)cyclobutane-1-carboxamide] | 1760 nM
CC(C)c1cc(C23CCC(CN(C(=O)OC(C)(C)C(F)(F)F)c4cc(-c5ccc(C(C)(C)O)cc5)ccn4)(CC2)CC3)n(C)n1 [Example 661, 1,1,1-trifluoro-2-methylpropan-2-yl (4-(4-(2-hydroxypropan-2-yl)phenyl)pyridin-2-yl)((4-(3-isopropyl-1-methyl-1H-pyrazol-5-yl)bicyclo[2.2.2]octan-1-yl)methyl)carbamate] | 53 nM
CC(C)(O)C12CCC(c3ccnc(N(CC45CCC(c6nc(C7CC7)no6)(CC4)CC5)C(=O)OC(C)(C)C(F)(F)F)n3)(CC1)CC2 [Example 666, 1,1,1-trifluoro-2-methylpropan-2-yl ((4-(3-cyclopropyl-1,2,4-oxadiazol-5-yl)bicyclo[2.2.2]octan-1-yl)methyl)(4-(4-(2-hydroxypropan-2-yl)bicyclo[2.2.2]octan-1-yl)pyrimidin-2-yl)carbamate] | 496 nM
CCc1ccc(-c2cccc(N(CC34CCC(c5noc(C(C)(C)C)n5)(CC3)CC4)C(=O)C34CC(F)(C3)C4)c2)cc1 [Example 456, N-((4-(5-(tert-butyl)-1,2,4-oxadiazol-3-yl)bicyclo[2.2.2]octan-1-yl)methyl)-N-(4′-ethyl-[1,1′-biphenyl]-3-yl)-3-fluorobicyclo[1.1.1]pentane-1-carboxamide] | 106 nM
COc1ccc(C23CCC(CN(C(=O)C45CC(F)(C4)C5)c4cccc(-c5ccc6nc(C)sc6c5)c4)(CC2)CO3)cc1 [Example 556, 3-Fluoro-N-((1-(4-methoxyphenyl)-2-oxabicyclo[2.2.2]octan-4-yl)methyl)-N-(3-(2-methylbenzo[d]thiazol-6-yl)phenyl)bicyclo[1.1.1]pentane-1-carboxamide] | 816 nM
O=C(N(CC12CCC(c3nc(C4CC4)no3)(CC1)CC2)c1cccc(-c2ccc(Cl)c(Cl)c2)c1)C12CC(F)(C1)C2 [Example 286, N-((4-(3-cyclopropyl-1,2,4-oxadiazol-5-yl)bicyclo[2.2.2]octan-1-yl)methyl)-N-(3′,4′-dichloro-[1,1′-biphenyl]-3-yl)-3-fluorobicyclo[1.1.1]pentane-1-carboxamide] | 361 nM
Cn1nc(C23CCC(CN(C(=O)C45CC(F)(C4)C5)c4cccc(-c5cnc6nc(C7CC7)sc6c5)c4)(CC2)CC3)cc1C1CC1 [Example 410, N-((4-(5-cyclopropyl-1-methyl-1H-pyrazol-3-yl)bicyclo[2.2.2]octan-1-yl)methyl)-N-(3-(2-cyclopropylthiazolo[4,5-b]pyridin-6-yl)phenyl)-3-fluorobicyclo[1.1.1]pentane-1-carboxamide] | 465 nM
Cc1cnn2c(-c3cccc(N(CC45CCC(c6nc(C7CC7)no6)(CC4)CC5)C(=O)C45CC(F)(C4)C5)c3)cnc2c1 [Example 319, N-((4-(3-cyclopropyl-1,2,4-oxadiazol-5-yl)bicyclo[2.2.2]octan-1-yl)methyl)-3-fluoro-N-(3-(7-methylimidazo[1,2-b]pyridazin-3-yl)phenyl)bicyclo[1.1.1]pentane-1-carboxamide] | 161 nM
Cc1nc2ccc(-c3cccc(N(CC45CCC(c6ccc(C7(C#N)CC7)cc6)(CC4)OC5)C(=O)C45CC(F)(C4)C5)c3)cc2o1 [Example 347, N-((1-(4-(1-cyanocyclopropyl)phenyl)-2-oxabicyclo[2.2.2]octan-4-yl)methyl)-3-fluoro-N-(3-(2-methylbenzo[d]oxazol-6-yl)phenyl)bicyclo[1.1.1]pentane-1-carboxamide] | 123 nM
COc1cc(-c2cccc(N(CC34CCC(c5cc(C(F)(F)F)ccn5)(CC3)CC4)C(=O)C3CCC3)c2)ccn1 [Example 240, N-(3-(2-methoxypyridin-4-yl)phenyl)-N-((4-(4-(trifluoromethyl)pyridin-2-yl)bicyclo[2.2.2]octan-1-yl)methyl)cyclobutanecarboxamide] | 2130 nM
COc1ccc(-c2cccc(N(CC34CCC(c5cc(C6CC6)n(C)n5)(CC3)CC4)C(=O)C34CC(F)(C3)C4)c2)cc1 [Example 408, N-((4-(5-cyclopropyl-1-methyl-1H-pyrazol-3-yl)bicyclo[2.2.2]octan-1-yl)methyl)-3-fluoro-N-(4′-methoxy-[1,1′-biphenyl]-3-yl)bicyclo[1.1.1]pentane-1-carboxamide] | 160 nM
COc1cnc(-c2cccc(N(CC34CCC(c5noc(C(C)(C)C)n5)(CC3)CC4)C(=O)C34CC(F)(C3)C4)c2)nc1 [Example 450, N-((4-(5-(tert-butyl)-1,2,4-oxadiazol-3-yl)bicyclo[2.2.2]octan-1-yl)methyl)-3-fluoro-N-(3-(5-methoxypyrimidin-2-yl)phenyl)bicyclo[1.1.1]pentane-1-carboxamide] | 68 nM
O=C(N(CC12CCC(c3nc(C4CC4)no3)(CC1)CC2)c1cccc(-c2ccn3ncnc3c2)c1)C12CC(F)(C1)C2 [Example 298, N-(3-([1,2,4]triazolo[1,5-a]pyridin-7-yl)phenyl)-N-((4-(3-cyclopropyl-1,2,4-oxadiazol-5-yl)bicyclo[2.2.2]octan-1-yl)methyl)-3-fluorobicyclo[1.1.1]pentane-1-carboxamide] | 1680 nM
CS(=O)(=O)Nc1ccc(-c2cccc(N(CC34CCC(c5nc(C6CC6)no5)(CC3)CC4)C(=O)C34CC(F)(C3)C4)c2)cc1 [Example 246, N-((4-(3-cyclopropyl-1,2,4-oxadiazol-5-yl)bicyclo[2.2.2]octan-1-yl)methyl)-3-fluoro-N-(4′-(methylsulfonamido)-[1,1′-biphenyl]-3-yl)bicyclo[1.1.1]pentane-1-carboxamide] | 66 nM
CCOc1ncc(-c2cccc(N(CC34CCC(c5noc(C6(C)CC6)n5)(CC3)CC4)C(=O)C34CC(F)(C3)C4)c2)cn1 [Example 396, N-(3-(2-ethoxypyrimidin-5-yl)phenyl)-3-fluoro-N-((4-(5-(1-methylcyclopropyl)-1,2,4-oxadiazol-3-yl)bicyclo[2.2.2]octan-1-yl)methyl)bicyclo[1.1.1]pentane-1-carboxamide] | 46 nM
CCOc1ncc(-c2cccc(N(CC34CCC(c5ccc(C6(C#N)CC6)cc5)(CC3)OC4)C(=O)C34CC(F)(C3)C4)c2)cn1 [Example 352, N-((1-(4-(1-cyanocyclopropyl)phenyl)-2-oxabicyclo[2.2.2]octan-4-yl)methyl)-N-(3-(2-ethoxypyrimidin-5-yl)phenyl)-3-fluorobicyclo[1.1.1]pentane-1-carboxamide] | 167 nM
Cc1cc(-c2cccc(N(CC34CCC(c5nc(C6CC6)no5)(CC3)CC4)C(=O)C34CC(F)(C3)C4)c2)nc2scnc12 [Example 327, N-((4-(3-cyclopropyl-1,2,4-oxadiazol-5-yl)bicyclo[2.2.2]octan-1-yl)methyl)-3-fluoro-N-(3-(7-methylthiazolo[5,4-b]pyridin-5-yl)phenyl)bicyclo[1.1.1]pentane-1-carboxamide] | 303 nM
COc1cc(-c2cccc(N(CC34CCC(c5ccnc(C)c5)(CC3)CC4)C(=O)C3CC(F)(F)C3)c2)ccn1 [Example 237, 3,3-Difluoro-N-(3-(2-methoxypyridin-4-yl)phenyl)-N-((4-(2-methylpyridin-4-yl)bicyclo[2.2.2]octan-1-yl)methyl)cyclobutane-1-carboxamide] | 541 nM
